Assay results reported in US20120177712A1, “ANTIMICROBIAL PARTICLE AND A PROCESS FOR PREPARING THE SAME” (priority 2009, published 2012).

Test system: S. epidermidis
Experiment: Antimicrobial activity on fabric (washed cotton swatches)
Format: cell-based
Details: in model detergent (0.6 g/L Na-LAS, 1.2 g/L Soda, 0.9 g/L NaCl), CPC 0.02 g/L or equivalent amount of particle, cotton swatches soaked, rinsed three times
Experimental: Cotton swatches having dimension 4×4 cm were used in this example. The swatches were soaked in respective compositions as given below for 30 minutes and then washed for 30 minutes in a shaker bath. After that the swatches were rinsed three times with deionized water in a shaker bath. The liquid to cloth ration were maintained at 20 during the washing and rinsing step.

CCCCCCCCCCCCCCCC[n+]1ccccc1 [CPC, Cetylpyridinium chloride]
Log reduction: 1.99
